According to ChEMBL document CHEMBL5338723, “Emerging Target-Directed Approaches for the Treatment and Diagnosis of Microbial Infections” (J Med Chem, 2023):

How the values were obtained:
Salmonella typhi [1] = assay: Antimicrobial activity against Salmonella enterica subsp. enterica serovar Typhi 19214 assessed as microbial growth inhibition; type: functional
Salmonella typhimurium [2] = assay: Antimicrobial activity against Salmonella enterica subsp. enterica serovar Typhimurium BAA-190 assessed as microbial growth inhibition; type: functional
Shigella flexneri [3] = assay: Antimicrobial activity against Shigella flexneri 2457T assessed as microbial growth inhibition; type: functional
Escherichia coli [4] = assay: Antimicrobial activity against Escherichia coli BAA-196 assessed as microbial growth inhibition; type: functional
Salmonella typhimurium [5] = assay: Antimicrobial activity against Salmonella enterica subsp. enterica serovar Typhimurium 29630 assessed as microbial growth inhibition; type: functional
Salmonella typhi [6] = assay: Antimicrobial activity against Salmonella enterica subsp. enterica serovar Typhi 700931 assessed as microbial growth inhibition; type: functional
Salmonella typhimurium [7] = assay: Antimicrobial activity against Salmonella enterica subsp. enterica serovar Typhimurium 19585 assessed as microbial growth inhibition; type: functional
Proteus mirabilis = assay: Antimicrobial activity against Proteus mirabilis 29906 assessed as microbial growth inhibition; type: functional
Shigella flexneri [8] = assay: Antimicrobial activity against Shigella flexneri M90T assessed as microbial growth inhibition; type: functional
Escherichia coli [9] = assay: Antimicrobial activity against Escherichia coli 25922 assessed as microbial growth inhibition; type: functional
Escherichia coli [10] = assay: Antimicrobial activity against Escherichia coli DH5alpha assessed as microbial growth inhibition; type: functional
Proteus vulgaris = assay: Antimicrobial activity against Proteus vulgaris assessed as microbial growth inhibition; type: functional
Salmonella typhi [11] = assay: Antimicrobial activity against Salmonella enterica subsp. enterica serovar Typhi assessed as microbial growth inhibition; type: functional
Pseudomonas aeruginosa = assay: Antibacterial activity against Pseudomonas aeruginosa assessed as microbial growth inhibition; type: functional
Staphylococcus aureus = assay: Antimicrobial activity against Staphylococcus aureus assessed as microbial growth inhibition; type: functional
Escherichia coli [12] = assay: Antimicrobial activity against Escherichia coli assessed as microbial growth inhibition; type: functional
[13] = test system: Mycobacterium tuberculosis; assay: Antimicrobial activity against Mycobacterium tuberculosis H37Rv assessed as microbial growth inhibition; type: functional
Acinetobacter baumannii = assay: Antimicrobial activity against Acinetobacter baumannii assessed as microbial growth inhibition; type: functional
[14] = test system: Acinetobacter genomosp. 13TU; assay: Antimicrobial activity against Acinetobacter nosocomialis assessed as microbial growth inhibition; type: functional
Escherichia coli [15] = assay: Antibacterial activity against Escherichia coli assessed as microbial growth inhibition; type: functional
Escherichia coli [16] = assay: Antibacterial activity against enterobactin-deficient Escherichia coli harboring delta entB assessed as microbial growth inhibition; type: functional, organism-based
Escherichia coli [17] = assay: Antibacterial activity against wild type Escherichia coli assessed as microbial growth inhibition; type: functional, organism-based
Escherichia coli [18] = assay: Antibacterial activity against enterobactin-deficient Escherichia coli harboring delta entA assessed as microbial growth inhibition; type: functional, organism-based

H-GGAPATSANAAGAAAIVGALAGIPGGPLGVVVGAVSAGLTTAIGSTVGSGSASSSAGGGS-OH
1.1 µM: MIC (Salmonella typhi [1]) | MIC (Salmonella typhimurium [2]) | MIC (Shigella flexneri [3]) | MIC (Escherichia coli [4]) | MIC (Salmonella typhimurium [5]) | MIC (Salmonella typhi [6]) | MIC (Salmonella typhimurium [7]) | MIC (Proteus mirabilis) | MIC (Shigella flexneri [8]) | MIC (Escherichia coli [9]) | MIC (Escherichia coli [10])

O=c1[nH]c2ccccc2[nH]/c1=N/N[C@@H]1O[C@H](CO)[C@@H](O)[C@H]1O
2.07 µM: MIC (Proteus vulgaris) | MIC (Pseudomonas aeruginosa) | MIC (Staphylococcus aureus) | MIC (Escherichia coli [12])
0.65 µM: MIC [13]
7.8 µM: MIC (Salmonella typhi [11])

CCCCCCCCCC(=O)N[C@@H](Cc1c[nH]c2ccccc12)C(=O)N[C@H](CC(N)=O)C(=O)N[C@@H](CC(=O)O)C(=O)N[C@@H]1C(=O)NCC(=O)N[C@@H](CCCNC(=O)[C@H](CCSC)NC(=O)[C@H](Cc2ccc(O)cc2)NC(=O)[C@H](CCCCN)NC(=O)[C@@H]2CCCN2C(=O)[C@H](CO)NC(=O)[C@H](Cc2c[nH]c3ccccc23)NC(=O)CN(CCCCNC(=O)c2cccc(O)c2O)C(=O)c2cccc(O)c2O)C(=O)N[C@@H](CC(=O)O)C(=O)N[C@H](C)C(=O)N[C@@H](CC(=O)O)C(=O)NCC(=O)N[C@H](CO)C(=O)N[C@@H](C(C)CC(=O)O)C(=O)N[C@@H](CC(=O)c2ccccc2N)C(=O)O[C@@H]1C (stereo partly drawn)
1 µM: MIC (Acinetobacter baumannii) | MIC [14] | MIC (Escherichia coli [15])

CC(=O)Oc1cccc(C(=O)NCCNC(=O)CN2CCN(CC(=O)NCCCC(=O)NC(C(=O)N[C@@H]3C(=O)N4[C@@H]3SC(C)(C)[C@@H]4C(=O)O)c3ccccc3)CCN(CC(=O)NCCNC(=O)c3cccc(OC(C)=O)c3OC(C)=O)CCN(CC(=O)NCCNC(=O)c3cccc(OC(C)=O)c3OC(C)=O)CC2)c1OC(C)=O (stereo partly drawn)
30.2 µM: IC50 (Escherichia coli [17])
2.1 µM: IC50 (Escherichia coli [16]) | IC50 (Escherichia coli [18])
